Measurements reported in patent US5073627A (Immunex Corporation, priority 1990, dated 1991).

Tests used:
[1] = biological target: T1, receptors on AML-193 cells (GM-CSF/IL-3 receptors) (Homo sapiens, UniProt P26951+P32927); test: Inhibition of 125I-IL-3 binding to AML-193 cells; conditions: normalized data, JM-1 as standard
T1 construct: endogenous in cells; host or cells: AML-193
T1 sequence (P26951 19-378): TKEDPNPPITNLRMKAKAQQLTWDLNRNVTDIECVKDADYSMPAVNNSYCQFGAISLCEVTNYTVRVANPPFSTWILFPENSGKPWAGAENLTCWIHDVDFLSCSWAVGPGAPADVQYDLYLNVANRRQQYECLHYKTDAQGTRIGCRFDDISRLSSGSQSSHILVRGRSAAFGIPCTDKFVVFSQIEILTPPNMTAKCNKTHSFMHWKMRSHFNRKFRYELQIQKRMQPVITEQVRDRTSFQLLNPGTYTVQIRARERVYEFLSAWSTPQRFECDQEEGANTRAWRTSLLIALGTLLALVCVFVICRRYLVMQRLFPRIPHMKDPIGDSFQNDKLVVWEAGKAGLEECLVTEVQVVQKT
T1 sequence (P32927 17-897): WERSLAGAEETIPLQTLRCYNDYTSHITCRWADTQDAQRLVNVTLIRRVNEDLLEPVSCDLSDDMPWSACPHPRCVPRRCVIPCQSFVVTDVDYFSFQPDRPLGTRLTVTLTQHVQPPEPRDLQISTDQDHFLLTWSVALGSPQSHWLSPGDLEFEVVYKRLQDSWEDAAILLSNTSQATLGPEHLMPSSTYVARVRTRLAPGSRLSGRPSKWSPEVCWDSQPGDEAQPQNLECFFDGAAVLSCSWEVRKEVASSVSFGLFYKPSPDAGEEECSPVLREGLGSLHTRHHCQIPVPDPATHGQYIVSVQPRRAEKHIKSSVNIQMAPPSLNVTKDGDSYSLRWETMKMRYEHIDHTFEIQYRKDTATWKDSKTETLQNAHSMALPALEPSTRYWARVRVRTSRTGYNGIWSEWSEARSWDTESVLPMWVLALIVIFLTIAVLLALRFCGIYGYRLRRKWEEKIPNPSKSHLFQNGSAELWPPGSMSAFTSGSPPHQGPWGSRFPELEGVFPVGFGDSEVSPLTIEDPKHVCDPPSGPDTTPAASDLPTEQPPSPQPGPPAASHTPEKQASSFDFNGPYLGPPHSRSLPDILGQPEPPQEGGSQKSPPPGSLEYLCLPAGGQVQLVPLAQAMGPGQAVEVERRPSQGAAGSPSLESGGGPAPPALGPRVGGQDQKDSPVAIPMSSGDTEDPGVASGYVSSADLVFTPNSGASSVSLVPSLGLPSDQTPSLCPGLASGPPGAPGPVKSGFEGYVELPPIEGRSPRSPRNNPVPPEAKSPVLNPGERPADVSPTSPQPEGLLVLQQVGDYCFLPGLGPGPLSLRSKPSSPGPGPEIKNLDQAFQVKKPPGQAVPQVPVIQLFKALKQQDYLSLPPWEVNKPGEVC
Description: (§1) Briefly, 2-10 μg of recombinant protein in 50 μl 0.2M sodium phosphate, pH 7.2, was combined with 50 μl enzymobead reagent, 2 mCi of sodium iodide in 20 μl of 0.05M sodium phosphate pH 7 and 10 μl of 2.5% β-D-glucose. After 10 min at 25° C., sodium azide (10 μl of 50 mM) and sodium metabisulfite (10 μl of 5 mg/ml) were added sequentially and incubation continued for 5 minutes at 25° C.
(§2) B. Binding Assays. Binding assays were performed using JM-1, KG-1, HL-60 and AML-193 cells.

[2] = biological target: T2, receptors on KG-1 cells (GM-CSF/IL-3 receptors) (Homo sapiens, UniProt P26951+P32927); test: Inhibition of 125I-IL-3 binding to KG-1 cells; conditions: for KI value on KG-1 cells relative to JM-1 cells: Table F data
T2 construct: endogenous in cells; host or cells: KG-1
T2 sequence (P26951 19-378): T1 sequence (P26951 19-378)
T2 sequence (P32927 17-897): T1 sequence (P32927 17-897)
Description: as §1, §2

AML-193 cells = test: Thymidine incorporation assay, proliferation of AML-193 cells; assay type: cell-based, human; conditions: for Specific Activity: one unit = amount of growth factor for half-maximal thymidine incorporation, AML-193 cells
Description: The cells were split twice weekly and were seeded into fresh medium at a density of 300,000/ml.
These samples were then serially diluted by 3-fold through the additional 11 wells of the microtitre plate. […] Tritiated thymidine ([…]) was added to each well for an additional 6 hours of incubation and the samples were harvested with an automated sample harvester and counted by liquid scintillation. One unit of activity is defined as the amount of growth factor required to stimulate half-maximal thymidine incorporation.

[3] = test system: unfractionated human bone marrow; test: Human bone marrow colony formation (CFU-GEMM, CFU-GM, BFU-E); assay type: cell-based; conditions: for Colonies (Mean ± S.D.) CFU-GM: agar
Description: Non-adherent, low density, T cell deplated cultures of human bone marrow were plated in methylcellulose (BFU-E, CFU-GEMM, 40,000 cells per plate) or agar (CFU-GM; 40,000 cells per culture) as described by Lu et al., Blood 61:250 (1983). Methylcellulose cultures contained 1 unit per plate erythropoietin and accounts for the background of 48±2 BFU-E in the absence of cytokine. Cultures were incubated in a 5% O2, 5% CO2, 90% N2 atmosphere for 14 days and counted with an inverted microscope.

[4] = Table D, 156 pg/ml (GM-CSF + IL-3: 156 ± 156 [sic]), 14 days
[5] = Table D, 312 pg/ml (GM-CSF + IL-3: 312 + 312), 14 days
[6] = Table D, 625 pg/ml (GM-CSF + IL-3: 625 + 625), 14 days
[7] = Table D, 625 pg/ml (GM-CSF + IL-3: 625 + 625), with erythropoietin, background 48 ± 2
[8] = Table D, 1250 pg/ml (GM-CSF + IL-3: 1250 + 1250), 14 days
[9] = Table D, 1250 pg/ml (GM-CSF + IL-3: 1250 + 1250), with erythropoietin, background 48 ± 2
[10] = Table D, 2500 pg/ml (GM-CSF + IL-3: 2500 + 2500), 14 days
[11] = Table D, 2500 pg/ml (GM-CSF + IL-3: 2500 + 2500), with erythropoietin, background 48 ± 2
[12] = Table D, 5000 pg/ml (GM-CSF + IL-3: 5000 + 5000), 14 days
[13] = Table D, 5000 pg/ml (GM-CSF + IL-3: 5000 + 5000), with erythropoietin, background 48 ± 2

huGM-CSF[Leu^23 Asp^27 Glu^39 ]/Gly4 SerGly5 Ser/huIL-3[Pro^8 Asp^15 Asp^70 ] [GM-CSF/IL-3]
Binding affinity to AML-193 cells relative to JM-1 cells [1]: 11.1 fold
KI value on KG-1 cells relative to JM-1 cells [2]: 10-20 fold
Binding affinity to KG-1 cells relative to JM-1 cells ([2]; normalized data, JM-1 as standard): 41.0 fold
Specific activity relative to IL-3 or GM-CSF alone or GM-CSF plus IL-3 combined (AML-193 cells; AML-193 thymidine incorporation): approximately 10 fold
Specific Activity (AML-193 cells): 1.81 × 10^6 units/mg
BFU-E, CFU-GM and CFU-GEMM colony formation relative to IL-3 or GM-CSF alone, or IL-3 and GM-CSF combined ([3]; FIG. 3A-3D): enhances
Colonies (Mean ± S.D.) CFU-GEMM ([3]; Table D, 78 pg/ml, 14 days): 0 colonies
Colonies (Mean ± S.D.) CFU-GM ([3]; Table D, 78 pg/ml, 14 days): 16 ± 2 colonies
Colonies (Mean ± S.D.) BFU-E ([3]; Table D, 78 pg/ml, with erythropoietin, background 48 ± 2): 50 ± 3 colonies
Colonies (Mean ± S.D.) CFU-GEMM [3, 4]: 1.0 ± 0.4 colonies
Colonies (Mean ± S.D.) CFU-GM [3, 4]: 24 ± 3 colonies
Colonies (Mean ± S.D.) BFU-E ([3]; Table D, 156 pg/ml (GM-CSF + IL-3: 156 ± 156 [sic]), with erythropoietin, background 48 ± 2): 49 ± 6 colonies
Colonies (Mean ± S.D.) CFU-GEMM [3, 5]: 2.5 ± 0.7 colonies
Colonies (Mean ± S.D.) CFU-GM [3, 5]: 35 ± 2 colonies
Colonies (Mean ± S.D.) BFU-E ([3]; Table D, 312 pg/ml (GM-CSF + IL-3: 312 + 312), with erythropoietin, background 48 ± 2): 70 ± 4 colonies
Colonies (Mean ± S.D.) CFU-GEMM [3, 6]: 4.3 ± 0.5 colonies
Colonies (Mean ± S.D.) CFU-GM [3, 6]: 52 ± 6 colonies
Colonies (Mean ± S.D.) BFU-E [3, 7]: 83 ± 5 colonies
Colonies (Mean ± S.D.) CFU-GEMM [3, 8]: 6.8 ± 0.5 colonies
Colonies (Mean ± S.D.) CFU-GM [3, 8]: 59 ± 2 colonies
Colonies (Mean ± S.D.) BFU-E [3, 9]: 125 ± 8 colonies
Colonies (Mean ± S.D.) CFU-GEMM [3, 10]: 10.3 ± 0.9 colonies
Colonies (Mean ± S.D.) CFU-GM [3, 10]: 74 ± 1 colonies
Colonies (Mean ± S.D.) BFU-E [3, 11]: 119 ± 5 colonies
Colonies (Mean ± S.D.) CFU-GEMM [3, 12]: 10.3 ± 1 colonies
Colonies (Mean ± S.D.) CFU-GM [3, 12]: 97 ± 2 colonies
Colonies (Mean ± S.D.) BFU-E [3, 13]: 107 ± 5 colonies
Colonies (Mean ± S.D.) CFU-GM ([3]; Table E, 78 pg/ml): 2 ± 0.3 colonies
Colonies (Mean ± S.D.) CFU-GEMM ([3]; Table E, 78 pg/ml, media control 2 ± 0): 2.0 ± 0 colonies
Colonies (Mean ± S.D.) BFU-E ([3]; Table E, 78 pg/ml, media control 44 ± 4): 44 ± 1 colonies
Colonies (Mean ± S.D.) CFU-GM ([3]; Table E, 156 pg/ml (GM-CSF + IL-3: 156 + 156)): 5 ± 1 colonies
Colonies (Mean ± S.D.) CFU-GEMM ([3]; Table E, 156 pg/ml, media control 2 ± 0): 2.0 ± 1 colonies
Colonies (Mean ± S.D.) BFU-E ([3]; Table E, 156 pg/ml, media control 44 ± 4): 47 ± 3 colonies
Colonies (Mean ± S.D.) CFU-GM ([3]; Table E, 312 pg/ml (GM-CSF + IL-3: 312 + 312)): 8 ± 1 colonies
Colonies (Mean ± S.D.) CFU-GEMM ([3]; Table E, 312 pg/ml, media control 2 ± 0): 5.5 ± 0.5 colonies
Colonies (Mean ± S.D.) BFU-E ([3]; Table E, 312 pg/ml, media control 44 ± 4): 71 ± 1 colonies
Colonies (Mean ± S.D.) CFU-GM ([3]; Table E, 625 pg/ml (GM-CSF + IL-3: 625 + 625)): 15 ± 2 colonies
Colonies (Mean ± S.D.) CFU-GEMM ([3]; Table E, 625 pg/ml (GM-CSF + IL-3: 625 + 625), media control 2 ± 0): 6.0 ± 1 colonies
Colonies (Mean ± S.D.) BFU-E ([3]; Table E, 625 pg/ml (GM-CSF + IL-3: 625 + 625), media control 44 ± 4): 97 ± 2 colonies
Colonies (Mean ± S.D.) CFU-GM ([3]; Table E, 1250 pg/ml (GM-CSF + IL-3: 1250 + 1250)): 23 ± 2 colonies
Colonies (Mean ± S.D.) CFU-GEMM ([3]; Table E, 1250 pg/ml (GM-CSF + IL-3: 1250 + 1250), media control 2 ± 0): 9.0 ± 0 colonies
Colonies (Mean ± S.D.) BFU-E ([3]; Table E, 1250 pg/ml (GM-CSF + IL-3: 1250 + 1250), media control 44 ± 4): 127 ± 7 colonies
Colonies (Mean ± S.D.) CFU-GM ([3]; Table E, 2500 pg/ml (GM-CSF + IL-3: 2500 + 2500)): 45 ± 5 colonies
Colonies (Mean ± S.D.) CFU-GEMM ([3]; Table E, 2500 pg/ml (GM-CSF + IL-3: 2500 + 2500), media control 2 ± 0): 10.0 ± 1 colonies
Colonies (Mean ± S.D.) BFU-E ([3]; Table E, 2500 pg/ml (GM-CSF + IL-3: 2500 + 2500), media control 44 ± 4): 125 ± 10 colonies
Colonies (Mean ± S.D.) CFU-GM ([3]; Table E, 5000 pg/ml (GM-CSF + IL-3: 5000 + 5000)): 43 ± 5 colonies
Potency in enhancing proliferation of unfractionated human bone marrow cells ([3]; summary of Tables D and E): equivalent in potentcy to a mixture of GM-CSF and IL-3

huIL-3[Pro^8 Asp^15 Asp^70 ]/huGM-CSF[Leu^23 Asp^27 Glu^39 ] [IL-3/GM-CSF]
KI value on KG-1 cells relative to JM-1 cells [2]: 10-20 fold

GM-CSF: recombinant human granulocyte-macrophage colony-stimulating factor expressed in yeast, comparator
Specific Activity (AML-193 cells): 9.74 × 10^4 units/mg
Colonies (Mean ± S.D.) CFU-GEMM [3, 5]: 0 colonies
Colonies (Mean ± S.D.) CFU-GM [3, 5]: 16 ± 1 colonies
Colonies (Mean ± S.D.) CFU-GEMM [3, 6]: 0.3 ± 0.3 colonies
Colonies (Mean ± S.D.) CFU-GM [3, 6]: 21 ± 2 colonies
Colonies (Mean ± S.D.) BFU-E [3, 7]: 46 ± 3 colonies
Colonies (Mean ± S.D.) CFU-GEMM [3, 8]: 1.5 ± 0.3 colonies
Colonies (Mean ± S.D.) CFU-GM [3, 8]: 33 ± 2 colonies
Colonies (Mean ± S.D.) BFU-E [3, 9]: 47 ± 4 colonies
Colonies (Mean ± S.D.) CFU-GEMM [3, 10]: 3.5 ± 0.7 colonies
Colonies (Mean ± S.D.) CFU-GM [3, 10]: 42 ± 2 colonies
Colonies (Mean ± S.D.) BFU-E [3, 11]: 61 ± 1 colonies
Colonies (Mean ± S.D.) CFU-GEMM [3, 12]: 6.8 ± 0.6 colonies
Colonies (Mean ± S.D.) CFU-GM [3, 12]: 42 ± 4 colonies
Colonies (Mean ± S.D.) BFU-E [3, 13]: 63 ± 3 colonies
